In patent US20070202062A1, “Natural deodorant compositions comprising renewably-based, biodegradable 1,3-propanediol” (priority 2006, published 2007):

What was measured:
[1] = Glycerine vs Bio-PDO - Efficacy (deodorant actives, in vivo human)
[2] = Glycerine vs Bio-PDO - Stability (Efficacy/shelf-life); settings: active in GLYCERINE; in vivo (human)
[3] = Glycerine vs Bio-PDO - Stability (Shrinkage - 3 months); format: physicochemical
[4] = Glycerine vs Bio-PDO - Irritation (in vivo human)

Row | Compound | Efficacy, # hours ([1]; active in Bio-PDO) | Efficacy, # hours ([1]; active in GLYCERINE) | Stability (Efficacy/shelf-life), # months [2] | Stability (Shrinkage - 3 months), % in product ([3]; active in Bio-PDO) | Stability (Shrinkage - 3 months), % in product ([3]; active in GLYCERINE) | Irritation, Ranking 1-10 ([4]; active in Bio-PDO) | Irritation, Ranking 1-10 ([4]; active in GLYCERINE)
1 | polyglyceryl-3 caprylate [polyglycerol 3 caprylate] | 12 h | 0 h |  |  |  |  | 
2 | CCCCCCCCCCCC(=O)OCC(O)CO (stereo not drawn) [GML, Glyceryl monolaurate] | 12 h | 4 h | 6 months | 3% | 0% | 0 | 0
